For data set [1] the following is noted: even in the presence of an excess of glutathione (GSH); cited from earlier work.
For data set [2], the system named is ischemic neuronal degeneration. The experiment in a line: Protection of cell damage by ischemia (in vivo). The following applies: 60 mg/kg P.O. 30 minutes after ischemic injury (post-treated), 5 min carotid occlusion, 4 days reperfusion, hippocampus. The arrangement: species or system Mongolian gerbils (Meriones unguiculatus). The procedure:
Male Mongolian gerbils (Meriones unguiculatus) weighing 80-88 g were used in the present study. Each animal was medicated P.O. with vehicle, Ebselen or various test compounds (60 mg/kg in 10% DMSO), after 30 minutes ischemic injury, respectively. 20 animals were allotted into every group. The animals were placed under general anesthesia with a mixture of 2.5% isoflurane in 33% oxygen and 67% nitrous oxide. A midline ventral incision was made in the neck. Both common carotid arteries were isolated, freed of nerve fibers, and occluded using nontraumatic aneurysm clips. Complete interruption of blood flow was confirmed by observing the central artery in eyeballs using ophthalmoscope. After five minutes of occlusion, the aneurysm clips were removed from both common carotid arteries. Restoration of blood flow (reperfusion) was observed directly under the microscope. Sham-operated controls were subjected to the same surgical procedures except that common carotid arteries were not occluded. Body temperature was monitored and maintained at 37° C.±0.5° C. during surgery and during the immediate postoperative period until the animals recovered fully from anesthesia. […]
Images of staining in the hippocampus of each animal were captured with an Applescanner. […] All data obtained from the quantitative data were analyzed using one-way ANOVA to determine statistical significance. […]

Another data set has as its system mice. Particulars: oral administration; cited from earlier work.
Another data set deals with rats. Particulars: oral administration; cited from earlier work.
Data set [3] concerns soybean phosphatidylcholine liposome. The experiment in a line: Inhibition of lipid peroxidation of a multilayer liposome (TBA method). The format is biochemical. The following applies: lipid peroxidation of liposome started with FeCl2, 37° C. 15 minutes, absorbance at 532 nm; read-out: Inhibitor Concentration (IC50). How it is done: The compounds of the present invention were tested for antioxidant effect in terms of the repression of the radical chain reaction of a multilayer liposome.
The liposome was prepared as followings: 30 mg of commercially available soybean phosphatidylcholine (PC, Sigma Chemical Co., U.S.A.) was dissolved in 1 mL of ethanol, and 200 μL of the ethanol/PC solution was added to 10 mL of 10 mM Tris buffer including 50 mM NaCl (pH 7.0) with stirring.
The ability of a compound to inhibit oxidation of the liposome was evaluated as followings: To 400 μL of the liposomes were added the test compound (in buffer or ethanol) and histidine-FeCl3 (167:33 μM final). Oxidation was initiated by the addition of FeCl2 (33 μM final prepared in nitrogen purged water). The mixtures was shaken at 37° C. for 15 minutes. Thereafter, tubes were treated with 1 mL of 0.67% thiobabituric acid (TBA):10% trichloroacetic acid (2:1, v/v) in 0.25 N HCl solution, containing 1.5% (v/v) t-butylhydroxytoluene (BHT) to terminate oxidation. The aliquots were heated to 100° C. for 20 minutes. After ice cooling, 1 mL of chloroform was added to 1 mL supernatant from tubes and tubes were centrifuged. The absorbances of the resulting supernatant were measured at 532 nm (see: Table 1 below).

A short description of data set [4]: Acute toxicity LD50 in rats. The following applies: rat, in vivo.

Usually LD50 stands for the dose expected to kill half of the subjects tested.

As for `O=c1c2ccccc2[se]n1-c1ccccc1` [Ebselen], the solubility in water result in data set [1] is reported as “very little soluble in water”. For the same compound, the “protective effect against ischemic neuronal degeneration” value in data set [2] is listed as 59%. The 50% lethal dose (LD50) in the data set with mice and in the data set on rats was ≥ 6,810 mg/kg throughout.

As for `Cc1c(C)c2c(c(C)c1O)CCC(C)(C(=O)O)O2` (stereo not drawn) [Trolox, reference compound], in data set [3], the IC50 worked out at 10.2 µM.

For “4-[N-(tert-butyl)-N-hydroxyamino]-N-pyridin-2-yl-methyl-benzamide [Example 3]”, in data set [3], the IC50 worked out at 11.1 µM.

In the case of `CC(C)(C)N(O)c1ccc(C(=O)Nc2ccc(O)c3ncccc23)cc1` [Example 4, 4-[N-(tert-butyl)-N-hydroxyamino]-N-(8-hydroxyquinolin-5-yl)-benzamide], the IC50 in data set [3] was 61.9 µM.

For the compound `CC(C)(C)N(O)c1ccc(C(=O)Nc2ccccn2)cc1` [Example 2, 4-[N-(tert-butyl)-N-hydroxyamino]-N-pyridin-2-yl-benzamide], the IC50 in data set [3] worked out at 4.3 µM.

Regarding `CC(C)(C)N(O)c1ccc(C(=O)Nc2nccs2)cc1` [Example 1, 4-[N-(tert-butyl)-N-hydroxyamino]-N-thiazol-2-yl-benzamide], in data set [3], the IC50 came out at 1.44 µM. Besides, the “protective effect against ischemic neuronal degeneration” value in data set [2] turned out to be 81%. Moreover, the median lethal dose (LD50) in data set [4] (ip, intraperitoneal administration in rats) is not below 750 mg/kg; in data set [4] (oral administration in rats), not below 7000 mg/kg.

These data come from patent US6949654B2, “N-alkyl-N-phenylhydroxylamine compounds containing metal chelating groups, their preparation and their therapeutic uses” (Sam-Sung Electronics Co., Ltd., priority 2001, dated 2005).
